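Cultured in 96-well plates, cells were exposed to test compound for 48 hours across five concentrations. GI50 marks 50% less growth.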 Active and inactive are the calls of the source. No stated cut-off is given here; in the data, active = GI50 up to about 1.1 µM and inactive = higher.
Assays:
Assay in all cases: DTP human tumour cell line panel, 48 h
ACHN = system: ACHN
BT-549 = system: BT-549
CAKI-1 = system: CAKI-1
HCT-116 = system: HCT-116
HL-60 = system: HL-60
HOP-92 = system: HOP-92
Hs-578T = system: Hs-578T
IGROV-1 = system: IGROV-1
KM12 = system: KM12
NCI-H460 = system: NCI-H460
NCI/ADR-RES = system: NCI/ADR-RES
RPMI-8226 = system: RPMI-8226
RXF 393 = system: RXF 393
SF-539 = system: SF-539
SK-MEL-5 = system: SK-MEL-5
SK-OV-3 = system: SK-OV-3
SN12C = system: SN12C
T47D = system: T47D
U-251 = system: U-251

Measured: GI50

CCOC(=O)CCc1cc(=O)oc2cc(O)cc(O)c12
inactive: ACHN > 100 µM | BT-549 > 100 µM | CAKI-1 > 100 µM | HCT-116 > 100 µM | HL-60 > 100 µM | HOP-92 > 100 µM | Hs-578T > 100 µM | IGROV-1 > 100 µM | KM12 > 100 µM | NCI-H460 > 100 µM | NCI/ADR-RES > 100 µM | RPMI-8226 > 100 µM | RXF 393 > 100 µM | SF-539 > 100 µM | SK-MEL-5 > 100 µM | SK-OV-3 > 100 µM | SN12C > 100 µM | T47D > 100 µM | U-251 > 100 µM

COc1ccc(OC)c(-c2nc3n(c2/C=C2/C(=O)Nc4ccccc42)CCS3)c1
inactive: ACHN 90.6 µM | BT-549 81.5 µM | CAKI-1 51.4 µM | HCT-116 45.2 µM | HL-60 33.9 µM | HOP-92 48.6 µM | Hs-578T 44.8 µM | IGROV-1 36 µM | KM12 30.1 µM | NCI-H460 35 µM | NCI/ADR-RES 34.8 µM | RPMI-8226 35 µM | RXF 393 21.4 µM | SF-539 47.9 µM | SK-MEL-5 53.5 µM | SK-OV-3 72.9 µM | SN12C 65.8 µM | T47D 35.1 µM | U-251 67 µM

O=C(Oc1c(Cl)cc(C2(c3cc(Cl)c(OC(=O)c4ccccc4)c(Cl)c3)CCCCC2)cc1Cl)c1ccccc1
inactive: ACHN 5.15 µM | BT-549 14.7 µM | CAKI-1 5.01 µM | HCT-116 13.2 µM | HL-60 3.32 µM | HOP-92 8.45 µM | Hs-578T 14.8 µM | IGROV-1 10.6 µM | KM12 5.08 µM | NCI-H460 6.65 µM | NCI/ADR-RES 11.6 µM | RPMI-8226 11.9 µM | RXF 393 11.5 µM | SF-539 14.3 µM | SK-MEL-5 10.6 µM | SK-OV-3 15.5 µM | SN12C 13.2 µM | T47D 11 µM | U-251 13.8 µM

CC1(C)C/C=C\CCC(O)C(O)CCC(C)(C)C1=O (stereo not drawn)
inactive: ACHN > 100 µM | BT-549 > 100 µM | CAKI-1 > 100 µM | HCT-116 > 100 µM | HL-60 > 100 µM | HOP-92 > 100 µM | Hs-578T > 100 µM | IGROV-1 > 100 µM | KM12 > 100 µM | NCI-H460 > 100 µM | NCI/ADR-RES > 100 µM | RPMI-8226 > 100 µM | RXF 393 > 100 µM | SF-539 > 100 µM | SK-MEL-5 > 100 µM | SK-OV-3 > 100 µM | SN12C > 100 µM | T47D > 100 µM | U-251 > 100 µM

CCN(CC)c1ccc(/C=C/C2=NN(c3cccc(S(=O)(=O)O)c3)C3(C2)C(Cl)C(=O)N3c2nc3ccccc3s2)cc1 (stereo not drawn)
inactive: ACHN 10.9 µM | BT-549 9.25 µM | CAKI-1 3.48 µM | HCT-116 10.5 µM | HL-60 1.89 µM | HOP-92 6.73 µM | Hs-578T 14.4 µM | IGROV-1 4.88 µM | KM12 7.83 µM | NCI-H460 9.1 µM | NCI/ADR-RES 17.9 µM | RPMI-8226 2.32 µM | RXF 393 3.98 µM | SF-539 3.32 µM | SK-MEL-5 6.71 µM | SK-OV-3 12.4 µM | SN12C 8.18 µM | T47D 3.06 µM | U-251 3.4 µM

COC(=O)C1=NN2c3ccccc3C(=O)OCCC2(C)C1 (stereo not drawn)
inactive: ACHN > 100 µM | BT-549 > 100 µM | CAKI-1 > 100 µM | HCT-116 > 100 µM | HL-60 > 100 µM | HOP-92 > 100 µM | Hs-578T > 100 µM | IGROV-1 > 100 µM | KM12 > 100 µM | NCI-H460 68.2 µM | NCI/ADR-RES > 100 µM | RPMI-8226 > 100 µM | RXF 393 > 100 µM | SF-539 > 100 µM | SK-MEL-5 > 100 µM | SK-OV-3 > 100 µM | SN12C > 100 µM | T47D > 100 µM | U-251 > 100 µM

Cn1c2ccc3cc2c(=S)c2cc(ccc21)OCCOCCOCCOCCOCCO3
inactive: ACHN > 10 µM | BT-549 > 10 µM | CAKI-1 > 10 µM | HCT-116 > 10 µM | HL-60 > 10 µM | HOP-92 > 10 µM | Hs-578T > 10 µM | IGROV-1 > 10 µM | KM12 > 10 µM | NCI-H460 > 10 µM | NCI/ADR-RES > 10 µM | RPMI-8226 > 10 µM | RXF 393 > 10 µM | SF-539 > 10 µM | SK-MEL-5 > 10 µM | SK-OV-3 > 10 µM | SN12C > 10 µM | T47D > 10 µM | U-251 > 10 µM
